Experimental data reported in patent publication US6399105B1, “Sea cucumber carotenoid lipid fraction products and methods of use” (priority 2000, dated 2002).

Legend:
[1] = system: adjuvant induced arthritis; experiment: Adjuvant induced arthritis assay in rats; assay type: in vivo, rat; conditions: 10 mg/kg orally once per day for 7 days; for Mean Paw Wt.: 6 rats; for % Anti-inflammatory Response: (control - test)/test x 100
5-lipoxygenase (5-LO) = target: T1, 5-lipoxygenase (5-LO) (Homo sapiens, UniProt P09917); experiment: 5-Lipoxygenase assay in human PMNs (LTB4, isomers, 5-HETE by HPLC); assay type: cell-based; conditions: human neutrophils
T1 construct: Human PMNs isolated by standard procedures from a normal volunteer were prewarmed to 37° C; endogenous in cells; host or cells: human polymorphonuclear leukocytes (neutrophils) from a normal volunteer
T1 sequence (P09917 1-674): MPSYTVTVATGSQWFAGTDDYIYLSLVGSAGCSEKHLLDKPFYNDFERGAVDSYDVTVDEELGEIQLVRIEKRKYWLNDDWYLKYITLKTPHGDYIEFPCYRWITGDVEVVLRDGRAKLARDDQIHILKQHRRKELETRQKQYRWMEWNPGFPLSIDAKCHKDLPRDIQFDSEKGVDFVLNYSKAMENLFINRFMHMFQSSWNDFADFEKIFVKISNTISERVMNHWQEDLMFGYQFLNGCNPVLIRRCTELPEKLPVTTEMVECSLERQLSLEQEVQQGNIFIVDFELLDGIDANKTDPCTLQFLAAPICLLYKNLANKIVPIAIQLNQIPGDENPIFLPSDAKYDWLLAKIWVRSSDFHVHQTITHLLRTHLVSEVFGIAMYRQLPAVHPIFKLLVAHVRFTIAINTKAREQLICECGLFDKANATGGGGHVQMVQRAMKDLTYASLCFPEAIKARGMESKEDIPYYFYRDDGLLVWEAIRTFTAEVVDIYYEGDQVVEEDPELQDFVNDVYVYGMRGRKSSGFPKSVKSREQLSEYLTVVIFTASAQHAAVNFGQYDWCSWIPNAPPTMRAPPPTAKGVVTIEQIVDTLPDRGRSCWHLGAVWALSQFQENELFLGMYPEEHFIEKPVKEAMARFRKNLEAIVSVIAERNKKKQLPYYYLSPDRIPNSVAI
Source text: 5-lipoxygenase (5-LO) is a key enzyme in the metabolism of arachidonic acid (AA) to leukotriene B4 (LTB4) and hydroxyeicosatetraenoic acid (5-HETE) it a wide variety of cells. including polymorphonuclear (PMN) leukocytes (Henderson, 1994) and has recently been linked to prostate and other cancers (Ghosh and Myers, 1997). LTB4 is a chemotaxic signaling agent involved in the migration of PMNs from the blood stream to sites of tissue injury, which is a hallmark of the inflammatory response. Human PMNs isolated by standard procedures from a normal volunteer were prewarmed to 37° C. and, at time=0, 10 μL of test compounds suspended in methanol by sonication, or methanol alone, were added to 1 mL of the PMN suspension. At t=10 min, […] of 2 mM AA were added to each suspension as the 5-LO substrate. At t=14 min, the calcium ionophore A23187 ([…], 1 mM) was added to activate the enzyme. The reaction was terminated at t=19 minutes by 100 μL of 100 mM citric acid, maintaining a pH of 3.0. Prostaglandin B2 and 15-HETE were added as internal standards for high pressure liquid chromatography (HPLC) quantification of LTB, and 5-HETE, respectively. Metabolites and standards were extracted from the suspension with chloroform/methanol (7:3). […] Metabolites were detected by ultraviolet light and quantified against standard curves. […]

12-lipoxygenase = target: T2, 12-lipoxygenase (Homo sapiens, UniProt P18054); experiment: 12-HETE assay using human platelets; assay type: cell-based
T2 construct: assayed by the method similar to the assay for 5-lipoxygenase by using human platelets; endogenous in cells; host or cells: human platelets (mixed with polymorphonuclear leukocytes, challenged with A23187)
T2 sequence (P18054 1-663): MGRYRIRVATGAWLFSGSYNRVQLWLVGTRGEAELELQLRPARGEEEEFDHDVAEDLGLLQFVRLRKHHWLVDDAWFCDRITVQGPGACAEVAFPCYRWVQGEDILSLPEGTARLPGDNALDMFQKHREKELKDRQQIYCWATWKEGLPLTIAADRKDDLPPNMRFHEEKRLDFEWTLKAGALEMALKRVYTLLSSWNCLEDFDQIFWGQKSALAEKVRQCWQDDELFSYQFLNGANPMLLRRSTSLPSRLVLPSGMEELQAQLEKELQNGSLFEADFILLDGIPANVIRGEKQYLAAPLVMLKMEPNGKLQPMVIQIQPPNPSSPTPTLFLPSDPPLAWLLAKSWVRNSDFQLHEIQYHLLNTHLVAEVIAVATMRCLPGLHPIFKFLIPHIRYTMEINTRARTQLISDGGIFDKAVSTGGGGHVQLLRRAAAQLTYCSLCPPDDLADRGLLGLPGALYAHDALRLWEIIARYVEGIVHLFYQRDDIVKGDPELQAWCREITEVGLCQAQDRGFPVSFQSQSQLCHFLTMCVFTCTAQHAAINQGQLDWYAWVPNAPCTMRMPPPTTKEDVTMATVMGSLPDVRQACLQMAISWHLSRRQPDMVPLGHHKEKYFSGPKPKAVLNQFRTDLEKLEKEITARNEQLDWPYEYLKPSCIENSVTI
Experimental: RED OIL and GOLD OIL were assayed by the method similar to the assay for 5-lipoxygenase by using human platelets. Polymorphonuclear leukocytes were mixed, challenged with A23187, and 12-HETE production was measured by high pressure liquid chromatography (HPLC). Addition of a 1:10,000 dilution of RED OIL to the reaction yielded 12-HETE levels that were 65% that of methanolic controls, while A 1:1000 dilution of GOLD OIL yielded levels that were 46% of controls.

[2] = system: PC3, MCF7, HT29 or BRO cell lines; experiment: Anti-cancer assays, MTT viable dye method, 72 hr; assay type: cell-based; conditions: human cancer cell lines
Experimental: RED OIL and GOLD OIL and various thin-layer chromatographic fractions have been tested against human cancer cell lines in vitro. Materials were initially dissolved in dimethyl sulfoxide and then diluted in tissue culture media. Aliquots of 23 μg/mL were then applied to PC3 (human prostate), MCF7 (human breast adenocarcinoma), HT29 (human colon adenocarcinoma) or BRO (human melanoma) cell lines. These fractions mediated inhibition of cell growth relative to untreated control cells as assessed after 72 hr by the MTT viable dye method as is commonly used by those skilled in the arts. […] One such fraction isolated from sea cucumber lipid phase by the method of Findlay et al. (1983b), plastochromanol-8, was considered to be promising in that values of 20-50 μg/mL were determined as IC50 values (that concentration inhibiting 50% of cell growth). […] Plastochromanol-8 was also shown to be inhibitory of the 12-Lipoxygenase pathway in human platelets.

[3] = system: leukotriene synthesis in human neutrophils; experiment: Leukotriene activation/synthesis assay in human neutrophils (method of Betts); assay type: cell-based
Source text: In a leukotriene activation assay showing the effect of plastochromanol-8 on leukotriene synthesis expressed as a percentage of a methanol control in human neutrophils, by the method of Betts (1997), plastochromanol-8 inhibited activation of 5-HETE by approximately 60 percent, LTB4 by approximately 40 percent, and two of the 6-trans isomers of LTB4 (6-trans-leukotriene B4 and 6-trans-12-epileukotriene B4), by 75%. In a related assay of the effect of plastochromanol-8 on leukotriene synthesis expressed as leukotriene synthesis per 10^6 PMN, plastochromanol-8 inhibited the production of 5-HETE by approximately 75%, LTB4 by 50%, and the two trans-6 isomers of LTB4 by approximately 80%. In similar assays with human platelets, plastochromanol-8 inhibited 12-HETE synthesis by approximately 80%.

[4] = leukotriene synthesis as percentage of methanol control
[5] = leukotriene synthesis per 10^6 PMN

inhibition of 5-lipoxygenase metabolite synthesis (LTB4, isomers, 5-HETE), in words (5-lipoxygenase (5-LO))	inhibition of 12-HETE synthesis (12-lipoxygenase)	inhibition of 12-lipoxygenase pathway, in words (12-lipoxygenase)	IC50 (concentration inhibiting 50% of cell growth) [2]	Structure (SMILES)	Mean Paw Wt. [1]	% Anti-inflammatory Response [1]	inhibition of 5-HETE [3, 4]	inhibition of 6-trans-leukotriene B4 and 6-trans-12-epileukotriene B4 [3, 4]	inhibition of LTB4 [3, 4]	inhibition of production of 5-HETE [3, 5]	inhibition of production of LTB4 [3, 5]	inhibition of production of the two trans-6 isomers of LTB4 [3, 5]
				C[C@]12CCC(=O)C=C1CC[C@@H]1[C@@H]2[C@@H](O)C[C@@]2(C)[C@H]1CC[C@]2(O)C(=O)CO [Hydrocortisone]	0.61 gm	59.0%						
				CCCCC1C(=O)N(c2ccccc2)N(c2ccccc2)C1=O [Phenylbutazone]	0.38 gm	155.3%						
dramatic inhibitor	approximately 80%	inhibitory	20 to 50 µg/mL	CC(C)=CCC/C(C)=C/CC/C(C)=C/CC/C(C)=C/CC/C(C)=C/CC/C(C)=C/CC/C(C)=C/CC/C(C)=C/CC[C@]1(C)CCc2cc(O)c(C)c(C)c2O1 [plastochromanol-8]			approximately 60%	75%	approximately 40%	approximately 75%	50%	approximately 80%
